Results reported in ChEMBL document CHEMBL1201862, “PubChem BioAssay data set” (2004).
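Cultured in 96-well plates, cells were exposed to test compound for 48 hours across five concentrations. At the GI50, growth is halved.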 Active and inactive are the calls of the source. Cut-off read from the data, not from the text of the source: active = GI50 up to about 1.1 µM and inactive = higher.

Key:
Test in all cases: NCI-60 cell line screen, 48 h
DLD-1 = tested on: DLD-1
CAKI-1 = tested on: CAKI-1
SNB-19 = tested on: SNB-19
U-251 = tested on: U-251
DMS-114 = tested on: DMS-114
SK-MEL-28 = tested on: SK-MEL-28
EKVX = tested on: EKVX
KM12 = tested on: KM12
SW-620 = tested on: SW-620
Malme-3M = tested on: Malme-3M
LXFL 529 = tested on: LXFL 529
M19-MEL = tested on: M19-MEL
RXF 631 = tested on: RXF 631
OVCAR-3 = tested on: OVCAR-3
XF498 = tested on: XF498
A549 = tested on: A549
SNB-78 = tested on: SNB-78
UACC-62 = tested on: UACC-62
DMS-273 = tested on: DMS-273
A498 = tested on: A498
KM-20L2 = tested on: KM-20L2
ACHN = tested on: ACHN
RPMI-8226 = tested on: RPMI-8226
MOLT-4 = tested on: MOLT-4
HOP-18 = tested on: HOP-18
K562 = tested on: K562
COLO 205 = tested on: COLO 205
HCT-15 = tested on: HCT-15
SN12C = tested on: SN12C
SF-295 = tested on: SF-295

For `Cc1cc2c(C(C)C)c(O)c(O)c(C=O)c2c(O)c1-c1c(C)cc2c(C(C)C)c(O)c(O)c(C=O)c2c1O` [GOSSYPOL], the GI50 (DLD-1) was 3.84 µM (inactive), the GI50 (CAKI-1) was 4.14 µM (inactive) and the GI50 (SNB-19) was 3.86 µM (inactive). The GI50 (U-251) was 2.52 µM (inactive), the GI50 (DMS-114) was 2.58 µM (inactive) and the GI50 (SK-MEL-28) was 4.66 µM (inactive). The GI50 (EKVX) was 2.15 µM (inactive), the GI50 (KM12) was 1.97 µM (inactive) and the GI50 (SW-620) was 4.59 µM (inactive). The GI50 (Malme-3M) was 5.46 µM (inactive), the GI50 (LXFL 529) was 2.74 µM (inactive) and the GI50 (M19-MEL) was 3.34 µM (inactive). For the same compound, the GI50 (RXF 631) was 5.32 µM (inactive), the GI50 (OVCAR-3) was 3.24 µM (inactive) and the GI50 (XF498) was 2.26 µM (inactive). The GI50 (A549) was 2.98 µM (inactive), the GI50 (SNB-78) was 5.14 µM (inactive) and the GI50 (UACC-62) was 2.36 µM (inactive). For the same compound, the GI50 (DMS-273) was 4.4 µM (inactive), the GI50 (A498) was 4.35 µM (inactive) and the GI50 (KM-20L2) was 3.33 µM (inactive). For the same compound, the GI50 (ACHN) was 3.02 µM (inactive), the GI50 (RPMI-8226) was 2.49 µM (inactive) and the GI50 (MOLT-4) was 1.91 µM (inactive). For the same compound, the GI50 (HOP-18) was 3.69 µM (inactive), the GI50 (K562) was 3.08 µM (inactive) and the GI50 (COLO 205) was 2.63 µM (inactive). The GI50 (HCT-15) was 3.52 µM, the GI50 (SN12C) was 5.09 µM (inactive) and the GI50 (SF-295) was 2.37 µM (inactive).
